Laboratory results as given in patent publication US9084734B2, “Peptide personal care compositions and methods for their use” (Danisco US Inc., priority 2005, dated 2015).
Bridge positions count the residues as written; N and C are the ends. Peptide text beside a SMILES is read from it.

Key:
Human VEGF165 = biological target: T1, Human VEGF165 (Homo sapiens, UniProt P15692); experiment: BIAcore binding analysis of VEGF-binding peptides (surface plasmon resonance); conditions: two state reaction model with conformation change; 25° C.
T1 construct: purchased Biosource
T1 sequence (P15692 27-191 isoform P15692-4): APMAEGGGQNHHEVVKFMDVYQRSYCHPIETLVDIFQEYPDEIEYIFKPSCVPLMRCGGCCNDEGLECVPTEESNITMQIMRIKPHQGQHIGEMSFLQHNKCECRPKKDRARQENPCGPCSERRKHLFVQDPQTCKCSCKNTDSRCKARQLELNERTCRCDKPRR
Experimental: FIG. 3 provides results of a BIACORE binding analysis of VEGF binding peptides. Binding curves were obtained as described in the Examples. Data were fit to a two state reaction model with conformation change: Analyte (A) binds to ligand (B) to form complex AB.
In this Example, experiments conducted to assess the affinities of the peptides for VEGF are described. Affinities of the peptides for VEGF were measured using a BIAcore™-3000 surface plasmon resonance system (Biacore). A CM5 sensor chip was conditioned with 50 mM NaOH, 0.1% HCl, 0.1% SDS, and 0.08% H3PO4, and activated for covalent coupling of VEGF using N-ethyl-N′-(3-dimethylaminopropyl)-carbodiimide hydrochloride (EDC) and N-hydroxysuccinimide (NHS) according to the supplier's instructions (Biacore). Human VEGF165 (Biosource) was diluted to 5 μg/ml in 20 mM sodium acetate, pH 4.8 and injected at a flow rate of 2 μl/min to achieve approximately 1000 to 6000 response units (RU) of coupled protein. TNF-alpha (human TNF-alpha, Biosource, Int., Camarillo, Calif.) was similarly coupled to the CM5 sensor chip to approximately 850 to 3500 RU in the reference lane. A solution of 1 M ethanolamine was injected as a blocking agent. In some experiments, an additional solution of EDC and NHS were injected to improve baseline stability and a solution of 1 M ethanolamine injected as a blocking agent. The reference lane was activated with EDC and NHS and blocked with ethanolamine.
Peptides were synthesized using standard FMOC chemistry, purified by reverse phase HPLC to >95% purity (SynPep), and stored at 10 mg/mL in DMSO. For kinetic measurements, twofold serial diluted peptides in HBS-EP buffer, 0.01 M HEPES pH 7.4, 0.15 M NaCl, 3 mM EDTA, 0.005% Surfactant P20 (Biacore), were injected at 25° C. at a flow rate of 20 μL/min. Two-fold serial diluted DMSO samples and buffer samples were also injected for background subtraction. Kinetic parameters were calculated using BIAevaluation 3.1 software.

[1] = tested on: human umbilical vein endothelial cells (HUVEC); experiment: In vitro HUVEC proliferation assay (MTS) for hVEGF inhibitory peptides; assay type: cell-based; conditions: 10 ng/ml VEGF, 48 hrs
Experimental: FIG. 12 provides a graph showing HUVEC results for designated peptides.
In this Example, experiments conducted to determine the anti-proliferative activity of anti-VEG peptides are described. The antiproliferative activity of VEGF inhibitory peptides was determined using human umbilical vein endothelial cells (HUVEC) as follows. An early passage (less than six) of HUVEC was seeded in 96-well plates at 5000 cells per well and starved for 18 hrs in 200 μl EBM medium (Cambrex) without growth factors and supplemented with 0.5% FBS, at 37° C. with 5% CO2. The medium was replaced with 180 μl of growth medium containing EBM medium with 5% fetal bovine serum and 1% DMSO. Then, 20 μl of VEGF preincubated for one hour with varying peptide concentrations (the final DMSO concentration of all the wells was 1%) were added to the wells for a final VEGF concentration of 10 ng/ml. Human VEGF antibody (R & D Systems) was used as a positive control. Cells with 0.31 to 20 ng/ml concentrations of VEGF alone in the growth medium were used to construct a standard growth curve. The cells were further incubated for 48 hrs, and the cell proliferation was measured using an MTS assay (CellTiter 96 Aqueous One Solution Cell Proliferation Assay Kit; Promega). Then, 40 μl of the MTS tetrazolium solution was added to each well and after 3 and 4 hours incubation, the plates were read at 490 nm. […]

human skin = experiment: Repeat insult patch testing (RIPT) on human skin; assay type: in vivo; conditions: 0.5% (w/v) in deionized water/butylene glycol; approximately 0.2 mL; 200 human volunteers
Experimental: In this Example, experiments conducted to determine the patch test result for anti-VEGF peptides are described. Samples of the aVEGF peptide CK37281 dosed at 0.5% (w/v) were formulated in a base formulation containing deionized water/butylene glycol. Approximately 0.2 mL of the formulation was applied to 200 human volunteers in a repeated insult patch test according to procedures designed by Clinical Research Laboratories, Inc. (Piscataway, N.J.).

Kd (Human VEGF165)	ka2 (Human VEGF165)	kd1 (Human VEGF165)	Compound	IC50 [1]	dermal irritation or sensitization (human skin)
4.9 µM	6.34 e-3 s^−1	0.318 s⁻¹	CC(C)C[C@@H]1NC(=O)[C@H](CC(N)=O)NC(=O)[C@@H](NC(=O)[C@H](C)N)CSSC[C@@H](C(=O)NCC(=O)NCC(=O)NCC(=O)O)NC(=O)[C@H](Cc2c[nH]c3ccccc23)NC(=O)[C@H](Cc2ccccc2)NC(=O)[C@H](Cc2c[nH]cn2)NC(=O)[C@@H]2CCCN2C(=O)[C@H](Cc2c[nH]c3ccccc23)NC1=O [CK37283] (H-ACNLWPHFWCGGG-OH; disulfide 2-10; N-terminus and C-terminus assumed)	micromolar range	–
–	1.5 e-3 s^−1	0.0122 s⁻¹	CC(C)C[C@@H]1NC(=O)[C@H](CC(N)=O)NC(=O)[C@H](Cc2ccc(O)cc2)NC(=O)[C@@H](NC(=O)[C@H](C)N)CSSC[C@@H](C(=O)NCC(=O)NCC(=O)NCC(=O)O)NC(=O)[C@H]([C@@H](C)O)NC(=O)[C@H](Cc2c[nH]c3ccccc23)NC(=O)CNC(=O)[C@H](Cc2ccc(O)cc2)NC1=O [CK37281, YNLYGWT]	micromolar range	no dermal irritation or sensitization
